How the values were obtained:
[1] = molecular target: TEAD1 (Homo sapiens, UniProt P28347); experiment: TEAD thermal shift assay (TSA); format: binding
Text: (§1) Thermal shift assay (TSA) is a biophysical method to evaluate stability of proteins with change in temperature. The assay measures thermal denaturation temperature in varying conditions such as different drug concentration. For this example, fluorogenic dye was used that bind to unfolded proteins. SYPRO Orange binds non-specifically to hydrophobic surfaces, and water strongly quenches its fluorescence. When the protein unfolds, the exposed hydrophobic surfaces bind the dye, resulting in an increase in fluorescence by excluding water. Detergent micelles also bind the dye and increase background noise dramatically. Binding of small molecules to proteins leads to a stabilization against to thermal denaturation with the degree of thermal stabilization proportional to the strength of binding.
(§2) The study described in this example investigated the change in melting temperature (ΔTm) of TEAD isoforms 1-4 when treated with TEAD inhibitors.
(§3) Tris-HCL was dissolved in 5 mL of Cell culture grade water and allowed to dissolve completely. The pH was adjusted to 8 using NaOH. Additional assay buffer components were added in the order listed above. The buffer was mixed slowly.
(§4) Assay buffer was prepared according to the procedures outlined above and dispensed into test wells. Spyro orange was added to a concentration of 5× in the assay buffer, followed by test compound stock solution which was added to a concentration of 10 μM or 30 μM in the assay buffer.
(§5) The melt cycle was performed in Bio-RAD PCR instrument from 20-95° C. with ramp rate of 1° C./min.

[2] = molecular target: TEAD2 (Homo sapiens, UniProt Q15562); experiment: TEAD thermal shift assay (TSA); format: binding
Text: as §1, §2, §3, §4, §5

[3] = molecular target: TEAD3 (Homo sapiens, UniProt Q99594); experiment: TEAD thermal shift assay (TSA); format: binding
Text: as §1, §2, §3, §4, §5

[4] = molecular target: TEAD4 (Homo sapiens, UniProt Q15561); experiment: TEAD thermal shift assay (TSA); format: binding
Text: as §1, §2, §3, §4, §5

[5] = system: TEAD isoforms 1-4; experiment: TEAD thermal shift assay (TSA), outcome in words; format: binding, human
Text: as §1, §2, §3, §4, §5

[6] = system: NCI-H226 lung tumor model; experiment: Mouse xenograft NCI-H226 tumors; format: in vivo, NOD SCID mice
Text: This study evaluated the in vivo anti-tumor efficacy of test compounds in NOD SCID mice for treatment of NCI-H226 lung tumor model.
• Species: Mus Musculus • Strain: NOD SCID • Age: 6-8 weeks • Sex: female • Body weight: 18-22 g • Number of animals inoculated with tumor: 69 mice • Number of animals enrolled in the treatment: 40 mice • Number of unenrolled animals: 29 mice • Animal supplier: Beijing Vital River Biotechnology Experimental Animal Co. Ltd Certification number: 20221110Abzz0619000681
The NCI-H226 tumor cells were maintained in vitro in RPMI 1640 medium supplemented with 10% Fetal bovine serum and 1% Antibiotic-Antimycotic at 37° C. in an atmosphere of 5% CO2 in air. The tumor cells were routinely subcultured twice weekly by trypsin-EDTA. The cells growing in an exponential growth phase were harvested and counted for tumor inoculation.
Each mouse was inoculated subcutaneously at the right flank with NCI-H226 tumor cells (10×10^6+50% matrigel/0.2 mL) for tumor development. Animals were marked with earrings with unique 6 significant figure number for identification. The treatments were started when the average tumor volume reached an average size of 154 mm^3.
The major endpoint was to determine if the tumor growth could be delayed or mice could be cured. Tumor volume was measured twice a week in two dimensions using a caliper, and the volume was expressed in mm^3 using the formula: V=0.5 a×b^2 where a and b are the long and short diameters of the tumor, respectively. The tumor size was then used for calculations of T/C value. The TGI value (in percent) or the T/C value (in percent) is an indication of antitumor effectiveness; T and C are the mean tumor volumes or tumor weights of the treated and control groups, respectively, on a given day.
TGI was calculated for each group using the formula: TGI (%)=[1−(Ti−T0)/(Vi−V0)]×100; Ti is the average tumor volume of a treatment group on a given day, T0 is the average tumor volume of the treatment group on the day of treatment start, Vi is the average tumor volume of the vehicle control group on the same day with T1, and V0 is the average tumor volume of the vehicle group on the day of treatment start.
Relative T/C (%)=TRTV/CRTV×100 (RTV (%)=Vt/V0×100, Vt is the average tumor volume on a given day, V0 is the average tumor volume on the first day of treatment. TRTV is the RTV of a treatment group, and the CRTV is the RTV of the vehicle control group.)
Tumor weight was measured at the study termination. The Tweight/Cweight value (in percent) was calculated according to the formula: Tweight/Cweight (%)=TWtreatment/TWvehicle×100, where T and C are the mean tumor weights of the treatment and control groups respectively
Summary statistics, including mean and the standard error of the mean (SEM), were provided for the tumor volume of each group at each time point.
Statistical analysis of difference in tumor volume among the groups was conducted on the data obtained at the end of the study.
One-tailed T test was performed to compare tumor volumes between two groups. All data were analyzed using GraphPad Prism 6.0. p<0.05 is considered to be statistically significant.
The antitumor effectiveness of the study was analyzed on PG-D28 when vehicle group reached 472 mm^3.

[7] = Ratio of Protein to Compound 1:1
[8] = Ratio of Protein to Compound 1:3

Sequence of TEAD2 (Q15562 whole entry): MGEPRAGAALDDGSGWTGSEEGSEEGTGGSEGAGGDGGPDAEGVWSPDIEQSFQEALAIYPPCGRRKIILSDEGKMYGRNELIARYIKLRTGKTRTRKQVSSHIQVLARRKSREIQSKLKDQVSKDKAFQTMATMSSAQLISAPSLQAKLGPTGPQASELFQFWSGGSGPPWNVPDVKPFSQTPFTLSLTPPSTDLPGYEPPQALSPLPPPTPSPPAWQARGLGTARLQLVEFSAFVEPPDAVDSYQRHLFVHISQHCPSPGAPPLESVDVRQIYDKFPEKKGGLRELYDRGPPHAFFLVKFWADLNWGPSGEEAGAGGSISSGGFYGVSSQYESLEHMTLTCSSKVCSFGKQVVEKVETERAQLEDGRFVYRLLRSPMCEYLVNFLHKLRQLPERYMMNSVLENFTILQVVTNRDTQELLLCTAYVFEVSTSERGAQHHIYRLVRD
Sequence of TEAD4 (Q15561 whole entry): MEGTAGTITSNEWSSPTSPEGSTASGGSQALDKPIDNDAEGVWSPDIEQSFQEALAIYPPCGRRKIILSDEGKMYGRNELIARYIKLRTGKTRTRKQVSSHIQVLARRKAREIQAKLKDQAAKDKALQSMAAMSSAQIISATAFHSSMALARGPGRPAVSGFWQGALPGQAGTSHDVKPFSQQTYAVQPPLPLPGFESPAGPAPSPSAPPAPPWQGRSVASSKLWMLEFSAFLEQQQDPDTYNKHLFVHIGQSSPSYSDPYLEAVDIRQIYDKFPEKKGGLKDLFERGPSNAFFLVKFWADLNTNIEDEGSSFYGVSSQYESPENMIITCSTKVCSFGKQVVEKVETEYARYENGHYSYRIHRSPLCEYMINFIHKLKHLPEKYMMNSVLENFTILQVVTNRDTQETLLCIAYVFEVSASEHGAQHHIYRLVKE
Sequence of TEAD1 (P28347 whole entry): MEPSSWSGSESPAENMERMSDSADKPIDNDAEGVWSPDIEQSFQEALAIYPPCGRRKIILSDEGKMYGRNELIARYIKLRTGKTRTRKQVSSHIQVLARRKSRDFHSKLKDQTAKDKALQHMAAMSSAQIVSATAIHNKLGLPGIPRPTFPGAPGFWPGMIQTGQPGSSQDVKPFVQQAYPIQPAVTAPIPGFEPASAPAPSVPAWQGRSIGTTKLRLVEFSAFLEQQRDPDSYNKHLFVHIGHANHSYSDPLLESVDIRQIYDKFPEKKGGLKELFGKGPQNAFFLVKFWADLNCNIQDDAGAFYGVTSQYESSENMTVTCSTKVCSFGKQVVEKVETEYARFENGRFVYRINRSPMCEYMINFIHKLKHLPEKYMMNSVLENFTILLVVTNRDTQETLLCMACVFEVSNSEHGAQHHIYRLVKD
Sequence of TEAD3 (Q99594 whole entry): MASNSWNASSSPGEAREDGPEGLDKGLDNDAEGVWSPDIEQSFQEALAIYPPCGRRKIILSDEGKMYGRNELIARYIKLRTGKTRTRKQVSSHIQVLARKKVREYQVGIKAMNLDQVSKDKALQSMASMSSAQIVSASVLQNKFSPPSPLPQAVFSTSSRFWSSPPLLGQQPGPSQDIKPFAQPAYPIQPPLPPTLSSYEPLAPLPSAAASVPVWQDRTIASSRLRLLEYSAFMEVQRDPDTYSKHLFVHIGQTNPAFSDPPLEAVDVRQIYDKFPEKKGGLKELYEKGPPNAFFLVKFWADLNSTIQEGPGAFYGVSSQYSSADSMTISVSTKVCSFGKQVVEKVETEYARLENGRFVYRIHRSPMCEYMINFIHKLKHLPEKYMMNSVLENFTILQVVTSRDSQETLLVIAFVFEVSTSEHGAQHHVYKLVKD

Cn1cnc(-c2cc([C@@]3(C)CCNC3=O)ccc2Nc2ccc(C(F)(F)F)cc2)c1 (single isomer, unassigned) [Compound 5, 3-methyl-3-(3-(1-methyl-1H-imidazol-4-yl)-4-((4-(trifluoromethyl)phenyl)amino)phenyl)pyrrolidin-2-one]
TEAD1 ΔTm [1, 7]: 7 °C | TEAD1 ΔTm [1, 8]: 10 °C | TEAD2 ΔTm [2, 7]: 8.5 °C | TEAD2 ΔTm [2, 8]: 11.5 °C | TEAD3 ΔTm [3, 7]: 0 °C | TEAD3 ΔTm [3, 8]: 0 °C | TEAD4 ΔTm [4, 7]: 1.5 °C | TEAD4 ΔTm [4, 8]: 7 °C | thermal shift / TEAD binding (in words) [5]: strong TEAD1 and TEAD4 binding | Tumor size (mean ± SEM) ([6]; day 0, 5 mg/kg, PO BID): 154 ± 13 mm^3 | Tumor size (mean ± SEM) ([6]; day 0, 15 mg/kg, PO BID): 154 ± 15 mm^3 | Tumor size (mean ± SEM) ([6]; day 0, 15 mg/kg, PO QD): 154 ± 15 mm^3 | Tumor size (mean ± SEM) ([6]; day 4, 5 mg/kg, PO BID): 140 ± 10 mm^3 | Tumor size (mean ± SEM) ([6]; day 4, 15 mg/kg, PO BID): 127 ± 14 mm^3 | Tumor size (mean ± SEM) ([6]; day 4, 15 mg/kg, PO QD): 153 ± 11 mm^3 | Tumor size (mean ± SEM) ([6]; day 7, 5 mg/kg, PO BID): 129 ± 5 mm^3 | Tumor size (mean ± SEM) ([6]; day 7, 15 mg/kg, PO BID): 115 ± 12 mm^3 | Tumor size (mean ± SEM) ([6]; day 7, 15 mg/kg, PO QD): 149 ± 11 mm^3 | Tumor size (mean ± SEM) ([6]; day 10, 5 mg/kg, PO BID): 124 ± 6 mm^3 | Tumor size (mean ± SEM) ([6]; day 10, 15 mg/kg, PO BID): 110 ± 10 mm^3 | Tumor size (mean ± SEM) ([6]; day 10, 15 mg/kg, PO QD): 148 ± 12 mm^3 | Tumor size (mean ± SEM) ([6]; day 13, 5 mg/kg, PO BID): 82 ± 8 mm^3 | Tumor size (mean ± SEM) ([6]; day 13, 15 mg/kg, PO BID): 84 ± 8 mm^3 | Tumor size (mean ± SEM) ([6]; day 13, 15 mg/kg, PO QD): 116 ± 26 mm^3 | Tumor size (mean ± SEM) ([6]; day 17, 5 mg/kg, PO BID): 77 ± 7 mm^3 | Tumor size (mean ± SEM) ([6]; day 17, 15 mg/kg, PO BID): 62 ± 6 mm^3 | Tumor size (mean ± SEM) ([6]; day 17, 15 mg/kg, PO QD): 94 ± 15 mm^3 | Tumor size (mean ± SEM) ([6]; day 20, 5 mg/kg, PO BID): 73 ± 6 mm^3 | Tumor size (mean ± SEM) ([6]; day 20, 15 mg/kg, PO BID): 63 ± 7 mm^3 | Tumor size (mean ± SEM) ([6]; day 20, 15 mg/kg, PO QD): 95 ± 16 mm^3 | Tumor size (mean ± SEM) ([6]; day 24, 5 mg/kg, PO BID): 55 ± 4 mm^3 | Tumor size (mean ± SEM) ([6]; day 24, 15 mg/kg, PO BID): 49 ± 4 mm^3 | Tumor size (mean ± SEM) ([6]; day 24, 15 mg/kg, PO QD): 85 ± 8 mm^3 | T/C ([6]; day 28, 5 mg/kg, PO BID): 11.2% | TGI ([6]; day 28, 5 mg/kg, PO BID): 131.3% | Tumor size (mean ± SEM) ([6]; day 28, 5 mg/kg, PO BID): 53 ± 5 mm^3 | Tumor Volume (mean ± SEM) ([6]; day 28, 5 mg/kg, PO BID (Table 20)): 53 ± 5 mm^3 | T/C ([6]; day 28, 15 mg/kg, PO BID): 9.0% | TGI ([6]; day 28, 15 mg/kg, PO BID): 134.2% | Tumor size (mean ± SEM) ([6]; day 28, 15 mg/kg, PO BID): 43 ± 6 mm^3 | Tumor Volume (mean ± SEM) ([6]; day 28, 15 mg/kg, PO BID (Table 20)): 43 ± 6 mm^3 | T/C ([6]; day 28, 15 mg/kg, PO QD): 17.0% | TGI ([6]; day 28, 15 mg/kg, PO QD): 122.3% | Tumor size (mean ± SEM) ([6]; day 28, 15 mg/kg, PO QD): 82 ± 12 mm^3 | Tumor Volume (mean ± SEM) ([6]; day 28, 15 mg/kg, PO QD (Table 20)): 82 ± 12 mm^3

— patent US20260317304A1, “TEAD INHIBITORS AND METHODS OF USE” (Sporos BioDiscovery, Inc., priority 2022, published 2026)
